{"source": "patent US20070203244A1", "about": "“INHIBITORS OF MEMBRANE TYPE-1 MATRIX METALLOPROTEINASE FOR THE TREATMENT OF INSULIN-DEPENDENT DIABETES MELLITUS” (priority 2006, published 2007)", "molecules": {"B1": {"name": "TIMP-4: native tissue inhibitor of MMP, 22 kDa, SEQ ID NO:6 (protein, UniProt Q99727 30-224, looked up)", "Metalloproteinase inhibitor 4": "CSCAPAHPQQHICHSALVIRAKISSEKVVPASADPADTEKMLRYEIKQIKMFKGFEKVKDVQYIYTPFDSSLCGVKLEANSQKQYLLTGQVLSDGKVFIHLCNYIEPWEDLSLVQRESLNHHYHLNCGCQITTCYTVPCTISAPNECLWTDWLLERKLYGYQAQHYVCMKHVDGTCSWYRGHLPLRKEFVDIVQP"}, "B2": {"name": "TIMP-3: native tissue inhibitor of MMP, SEQ ID NO:4 (protein)", "chain": "MTPWLGLIVLLGSWSLGDWGAEACTCSPSHPQDAFCNSDIVIRAKVVGKKLVKEGPFGTLVYTIKQMKMYRGFTKMPHVQYIHTEASESLCGLKLEVNKYQYLLTGRVYDGKMYTGLCNFVERWDQLTLSQRKGLNYRYHLGCNCKIKSCYYLPCFVTSKNECLWTDMLSNFGYPGYQSKHYACIRQKGGYCSWYRGWAPPDKSIINATDP"}}, "key": {"[1]": {"details": "human TIMP proteins; cited from earlier work"}, "MT1-MMP": {"biological_target": "T1, MT1-MMP (Mus musculus, UniProt P53690)", "T1 construct": "Endogenous MT1-MMP is latent in non-adherent IS-CD8^+ cells; endogenous in cells; host or cells: IS-CD8+ T cells (TGNFC8 clone, NOD mouse), adherent to gelatin", "assay": "MT1-MMP-dependent MMP-2 activation in adherent IS-CD8+ cells, gelatin zymography", "format": "cell-based, NOD mouse", "design": "inhibition of MMP-2 activation: dose or concentration left out as unconfirmed", "experimental": "MT1-MMP-dependent MMP-2 Activation and Gelatin Zymography—IS-CD8^+ cells (1×10^6) were either allowed to adhere for 4 h in serum-free unsupplemented Click's medium to plastic coated with 2% gelatin or kept in solution. Under these experimental conditions, the vast majority of cells became attached to gelatin. In 4 h, media samples (30 μl each) were withdrawn and analyzed by gelatin zymography (Deryugina, E. I., et al. (2001)) to identify the proteolytic activity and the activation status of MMP-2 naturally synthesized by IS-CD8^+ cells. Where indicated, cells were supplemented with external purified pro-MMP-2 (20 ng). Pro-MMP-2 was isolated from a conditioned medium of p2AHT2A72 cells derived from an HT1080 fibrosarcoma cell line sequentially transfected with the E1A and MMP-2 cDNAs (Strongin, A. Y., et al. (1995)).\nMT1-MMP-dependent MMP-2 activation and gelatin zymography—IS-CD8^+ cells (1×10^6) were either allowed to adhere for 4 h in serum-free unsupplemented Click's medium to the plastic coated with 2% gelatin or kept in solution. In 18 h, media samples (30 μl each) were withdrawn and analyzed by gelatin zymography (Deryugina, E. I., et al. (2001)) to identify the proteolytic activity and the activation status of MMP-2 naturally synthesized by IS-CD8^+ cells. […] Pro-MMP-2 was isolated from a conditioned medium of p2AHT2A72 cells derived from an HT1080 fibrosarcoma cell line sequentially transfected with the E1A and MMP-2 cDNAs (Strongin, A. Y., et al. (1995))."}, "[2]": {"tested_on": "CD44 shedding in IS-CD8+ cells", "assay": "CD44 shedding in adherent IS-CD8+ cells, Western blotting", "format": "cell-based, NOD mouse", "experimental": "Western Blotting—IS-CD8^+ cells were surface biotinylated for 1 h at 4° C. with 0.1 mg/ml sulfo-NHS-LC-biotin (Pierce, Rockford, Ill.). Following washes to remove biotin, cells were co-incubated for 2 h with MT1-MMP-CAT in serum-free, unsupplemented Click's medium. The cells were then lysed with 50 mM N-octyl-β-D-glucopyranoside in phosphate-buffered saline supplemented with 1 mM CaCl2, 1 mM MgCl2, and protease inhibitor mixture containing phenylmethylsulfonyl fluoride (1 mM) and aprotinin, pepstatin, and leupeptin (1 μg/ml each). Biotin-labeled CD44 was captured from the cell lysate and from the medium aliquots on streptavidin-agarose beads. The captured samples were examined by Western blotting with the CD44 (clone IM7.8.1) antibody to determine the released, soluble, CD44 ectodomain in the medium samples and the residual, membrane-anchored, cellular CD44 in the cell lysates.\nWestern blotting—IS-CD8^+ cells were surface biotinylated for 1 hr at 4° C. with 0.1 mg/ml of sulfo-NES-LC-biotin (Pierce). Following washes to remove biotin, the labeled cells were allowed to adhere in serum-free medium to plastic coated with 2% type I collagen/gelatin for 4 h or were kept in suspension. Under these experimental conditions, the vast majority of the cells became attached to gelatin. […] The cells were then lysed with 50 mM N-octyl-β-D-glucopyranoside in PBS supplemented with 1 mM CaCl2, 1 mM MgCl2, and protease inhibitor cocktail containing phenylmethylsulfonyl fluoride (1 mM) and aprotinin, pepstatin, and leupeptin (1 μg/ml each). Biotin-labeled CD44 was captured from the cell lysate and from the medium aliquots on streptavidine-Agarose beads. The captured samples were examined by Western blotting with the CD44 (clone IM7.8.1) antibody to determine the released, soluble, CD44 ectodomain in the medium samples and the residual, membrane-anchored, cellular CD44 in the cell lysates."}, "MMP-9": {"biological_target": "MMP-9 (Homo sapiens, UniProt P14780)", "sequence (P14780 94-707, species assumed)": "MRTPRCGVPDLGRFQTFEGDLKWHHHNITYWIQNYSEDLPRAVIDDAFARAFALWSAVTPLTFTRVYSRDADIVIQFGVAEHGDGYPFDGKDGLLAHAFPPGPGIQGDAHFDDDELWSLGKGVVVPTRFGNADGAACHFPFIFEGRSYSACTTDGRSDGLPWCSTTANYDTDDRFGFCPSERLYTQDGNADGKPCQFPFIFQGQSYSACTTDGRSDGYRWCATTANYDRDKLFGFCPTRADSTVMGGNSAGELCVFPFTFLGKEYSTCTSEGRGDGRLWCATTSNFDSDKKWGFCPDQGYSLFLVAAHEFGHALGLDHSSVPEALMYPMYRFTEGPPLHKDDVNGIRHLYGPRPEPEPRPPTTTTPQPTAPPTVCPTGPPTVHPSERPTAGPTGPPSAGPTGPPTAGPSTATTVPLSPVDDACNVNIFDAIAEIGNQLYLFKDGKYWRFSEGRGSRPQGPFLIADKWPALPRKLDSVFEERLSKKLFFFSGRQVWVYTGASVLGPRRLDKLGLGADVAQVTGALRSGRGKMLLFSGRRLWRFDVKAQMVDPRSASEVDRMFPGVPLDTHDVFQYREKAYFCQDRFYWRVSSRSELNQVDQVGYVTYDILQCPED", "details": "preclinical studies; cited from earlier work"}, "MMP-2": {"biological_target": "T2, MMP-2 (Homo sapiens, UniProt P08253)", "T2 sequence (P08253 110-660)": "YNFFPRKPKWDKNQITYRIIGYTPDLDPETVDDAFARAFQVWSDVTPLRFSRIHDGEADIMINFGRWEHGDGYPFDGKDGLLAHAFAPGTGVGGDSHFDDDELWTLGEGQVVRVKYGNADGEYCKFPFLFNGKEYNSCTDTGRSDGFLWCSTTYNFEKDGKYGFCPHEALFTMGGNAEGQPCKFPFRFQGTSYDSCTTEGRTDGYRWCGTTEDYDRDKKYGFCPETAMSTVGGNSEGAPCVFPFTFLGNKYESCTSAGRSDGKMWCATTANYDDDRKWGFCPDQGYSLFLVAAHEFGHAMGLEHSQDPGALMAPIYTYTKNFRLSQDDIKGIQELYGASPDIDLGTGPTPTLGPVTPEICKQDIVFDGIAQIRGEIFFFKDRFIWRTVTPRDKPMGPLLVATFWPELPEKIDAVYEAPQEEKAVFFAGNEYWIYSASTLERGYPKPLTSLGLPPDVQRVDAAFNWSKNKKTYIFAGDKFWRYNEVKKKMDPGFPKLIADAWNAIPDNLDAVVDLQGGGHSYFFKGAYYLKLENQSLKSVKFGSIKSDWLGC", "details": "preclinical studies; cited from earlier work"}, "IS-CD8+ T cells": {"tested_on": "IS-CD8+ T cells", "assay": "Homing of DiI-labeled IS-CD8+ T cells into the pancreatic islets of NOD mice", "format": "in vivo", "details": "Example 3: inhibitor i.p. before cells; 24 h; SB-3CT and EGCG at much higher concentrations than AG3340", "experimental": "Fluorescent Tracing and Morphometric Analysis—For trafficking studies, IS-CD8^+ T cells were incubated at 1×10^7 cells/ml for 30 min at 37° C. in the dark in complete Click's medium containing 5% fetal calf serum and 0.0075 mg/ml of the fluorescent dye 1,1′-didodecyl-3,3,3′,3′-tetramethylindocarbocyanine perchlorate (DiI; Molecular Probes, Eugene, Oreg.). After incubation, the cells were washed three times with phosphatebuffered saline to remove excess DiI. Labeled IS-CD8^+ cells (1×10^7 cells) were injected intravenously in 0.2 ml of phosphate-buffered saline into irradiated (725 rads, 24 h in advance) NOD mice. Mice were sacrificed 24 h after injection of DiI-labeled cells. The spleen and the pancreata were excised and fixed in 0.1 M periodate-lysine-paraformaldehyde phosphate buffer. The organs were next sucrose-saturated, freeze-molded in OCT compound (Sakura Finetek Inc., Torrance, Calif.), and freeze-sectioned. 7-μm-thick cryostat sections of the entire pancreas were prepared at 60-μm intervals using a Leica CM1900 cryotom. Distribution of DiI-labeled CD8^+ cells within the islets was examined using a fluorescent microscope. At least 100 individual islets per mouse (4-5 mice/experimental group) were examined. The characteristic morphology of the islets is easily identified on the cryosections. DiI-labeled cells were counted within the area relevant to each individual islet (see FIG. 3 for a representative image; the islet-relevant area is depicted by the solid white line, and the islet boundaries are shown by the white dotted line). The position of each IS-CD8^+ labeled cell was determined relative to the islet boundary. The labeled cells localized within the islet boundary were considered to be “inside,” whereas the labeled cells adjacent to the islet but outside of the islet boundary were considered to be “at the entrance.” This method has been described in substantial detail (Savinov, A. Y., et al. (2003), and Savinov, A. Y., et al. (2001), which are herein incorporated by reference in their entirety for their teaching of these methods).\nFluorescent tracing and morphometric analysis—For trafficking studies, IS-CD8^+ T cells were incubated at 1×10^7 cells/ml for 30 min at 37° C. in the dark in the complete Click's medium containing 5% FCS and 0.0075 mg/ml of fluorescent dye 1,1′-didodecyl-3,3,3′,3′-tetramethylindocarbocyanine perchlorate (DiI; Molecular Probes). After incubation, the cells were washed three times with PBS to remove excess DiI. Labeled IS-CD8^+ cells (1×10^7 cells) were intravenously injected in 0.2 ml of PBS into irradiated (725 Rad, 24 h in advance) NOD mice. Mice were sacrificed 24 h after injection of DiI-labeled cells. […] In 24 h, the spleen and the pancreata were excised and fixed in 0.1 M periodate-lysine-paraformaldehyde phosphate buffer. The organs were next sucrose-saturated, freeze-molded in OCT compound (Sakura Finetek Inc.) and freeze-sectioned. 7-μm-thick cryostat sections of the entire pancreas were prepared at the 60 μm intervals using a Leica CM1900 cryotom. Distribution of DiI-labeled CD8^+ cells within the islets was examined using a fluorescent microscope. At least 100 individual islets per mouse, 4-5 mice per each experimental group, were examined. The characteristic morphology of the islets is easily identified on the cryosections. DiI-labeled cells were counted within the area relevant to each individual islet. The position of each IS-CD8^+ labeled cell was determined relative to the islet boundary. […]"}, "NOD mice": {"tested_on": "NOD mice", "assay": "Adoptively transferred diabetes in NOD mice (IS-CD8+ cells)", "format": "in vivo", "details": "Example 3: i.p. 30 min prior to cells, then every other day; inhibitor diluted to 4 mg/ml", "experimental": "IS-CD8^+ cells were labeled with DiI and then injected in NOD mice. In 24 h, the labeled cells with their intra-islet location were counted in the cryostat sections of the entire pancreas. […] IS-CD8^+ cells were injected in NOD mice. […] PBS containing […] DMSO was used as a vehicle control. The onset of diabetes was monitored daily by measuring urine glucose levels with the Diastix reagent strips. Mice with urine glucose levels of ≧2000 mg/dl for 3 consecutive days were considered diabetic. * and **, p=0.02 and p=0.015 by Fisher's test, respectively.\nMice were monitored for 21 days. […] The onset of diabetes was identified by assessing urine glucose levels with Diastix® strips (Bayer). Mice with urine glucose levels of >2000 mg/dl for 3 consecutive days were considered diabetic. […] The level of glucose in the urine closely follows that in the blood (Traisman, H. S., and Greenwood, R. D. (1973)). The measurement of glucose in urine is a widely accepted method to follow the development of diabetes in NOD mice (Pomerleau, D. P., et al. (2005))."}, "[3]": {"details": "cited from earlier work"}}, "data": [{"molecule": "TIMP-1: native tissue inhibitor of MMP; a poor inhibitor of MT1-MMP", "values": [{"measurement": "isoelectric point", "setting": "[1]", "value": 8.00}, {"measurement": "activation of MMP-2 in adherent cells", "setting": "MT1-MMP; Example 2: AG3340 50 μM, TIMP-1 and TIMP-2 100 ng/ml, 18 h", "value": "no effect"}, {"measurement": "shedding of CD44 in adherent cells", "setting": "[2]; Example 2: AG3340 50 μM, TIMP-1 and TIMP-2 100 ng/ml", "value": "minor but noticeable inhibition"}]}, {"molecule": "CNC(=O)[C@@H](NC(=O)[C@H](CC(C)C)NC(=O)[C@@H](S)CCN1C(=O)N(C)C(C)(C)C1=O)C(C)(C)C", "note": "[BMS-275291]", "values": [{"measurement": "inhibitory activity against MMP-9", "setting": "MMP-9", "value": "potent inhibitory activity"}, {"measurement": "inhibitory activity against MMP-2", "setting": "MMP-2", "value": "potent inhibitory activity"}]}, {"molecule": "O=S(=O)(CC1CS1)c1ccc(Oc2ccccc2)cc1", "note": "(stereo not drawn) [SB-3CT]", "values": [{"measurement": "activation of MMP-2 in adherent cells", "setting": "MT1-MMP; Example 3: inhibitors added for 18 h", "value": "no effect"}, {"measurement": "homing of IS-CD8+ cells inside the islets", "setting": "IS-CD8+ T cells", "value": "did not affect"}, {"measurement": "shedding of CD44 in adherent cells", "setting": "[2]; Example 3", "value": "no effect"}, {"measurement": "delay of the transferred diabetes onset", "setting": "NOD mice", "value": "no delay"}]}, {"molecule": "O=C(O[C@@H]1Cc2c(O)cc(O)cc2O[C@@H]1c1cc(O)c(O)c(O)c1)c1cc(O)c(O)c(O)c1", "note": "[EGCG, (−)-epigallocatechin 3-gallate]", "values": [{"measurement": "inhibition of MMP-2 activation", "setting": "MT1-MMP; Example 3: EGCG", "value": "partial inhibition"}, {"measurement": "homing of IS-CD8+ cells inside the islets", "setting": "IS-CD8+ T cells", "value": "did not affect"}, {"measurement": "effect on CD44 proteolysis", "setting": "[2]; Example 3: EGCG 500 mM", "value": "without any significant effect"}, {"measurement": "delay of the transferred diabetes onset", "setting": "NOD mice", "value": "no delay"}]}, {"molecule": "COc1ccc(S(=O)(=O)N(Cc2cccnc2)[C@@H](C(=O)NO)C(C)C)cc1", "note": "[CGS-27023A]", "values": [{"measurement": "plasma concentrations relative to in vitro IC50s for MMP-2,-3 and -9", "setting": "[3]; clinically tolerable doses", "value": "severalfold greater"}, {"measurement": "time for which plasma concentrations above the in vitro IC50s for MMP-2,-3 and -9 were sustained after dosing", "setting": "[3]; clinically tolerable doses", "value": "> 10", "unit": "h"}, {"measurement": "dose at which major toxic effects (cutaneous and musculoskeletal toxicity) were encountered", "setting": "[3]; oral, continuous dosing, 150 to 600 mg in divided doses", "value": "exceeding 300 mg twice a day"}]}, {"molecule": "B1", "values": [{"measurement": "isoelectric point", "setting": "[1]", "value": 7.34}]}, {"molecule": "B2", "values": [{"measurement": "isoelectric point", "setting": "[1]", "value": 9.04}]}]}
